One data set deals with human JNK3 enzyme (Homo sapiens, UniProt P53779). Briefly: Measurement of JNK3 enzymatic activity (33P-ATP filter-binding method). Type of data set: biochemical. The following applies: ATP 10 μM, ATF2 3 μM. The protocol: First, a substrate was added to a prepared base reaction buffer solution (20 mM Hepes (pH 7.5), 10 mM MgCl2, 1 mM EGTA, 0.02% Brij35, 0.02 mg/ml BSA, 0.1 mM Na3VO4, 2 mM DTT, 1% DMSO), a human JNK3 enzyme was added into the prepared substrate solution, and the resulting solution was mixed. ATP (10 μM) and ATF2 (3 μM) were used as substrates, and among them, ATP was used as a common substrate. Next, the compound according to the present invention dissolved in 100% DMSO was added to an enzyme reaction solution, and incubated at room temperature for 20 minutes. Subsequently, ^33P-ATP was added to the mixed reaction solution to initiate the reaction, followed by incubation at room temperature for 2 hours, and enzymatic activity was detected by a filter-binding method. Specifically, 25 al per resulting solution was slowly spotted on P81 paper and placed in a scintillation vial, and then the paper was washed four times with 0.75% phosphoric acid for 10 minutes each and washed once with acetone for 5 minutes. 5 ml of a scintillation cocktail was added to the scintillation vial and signals were read using a scintillation counter.
Chain of human JNK3 enzyme (P53779 whole entry): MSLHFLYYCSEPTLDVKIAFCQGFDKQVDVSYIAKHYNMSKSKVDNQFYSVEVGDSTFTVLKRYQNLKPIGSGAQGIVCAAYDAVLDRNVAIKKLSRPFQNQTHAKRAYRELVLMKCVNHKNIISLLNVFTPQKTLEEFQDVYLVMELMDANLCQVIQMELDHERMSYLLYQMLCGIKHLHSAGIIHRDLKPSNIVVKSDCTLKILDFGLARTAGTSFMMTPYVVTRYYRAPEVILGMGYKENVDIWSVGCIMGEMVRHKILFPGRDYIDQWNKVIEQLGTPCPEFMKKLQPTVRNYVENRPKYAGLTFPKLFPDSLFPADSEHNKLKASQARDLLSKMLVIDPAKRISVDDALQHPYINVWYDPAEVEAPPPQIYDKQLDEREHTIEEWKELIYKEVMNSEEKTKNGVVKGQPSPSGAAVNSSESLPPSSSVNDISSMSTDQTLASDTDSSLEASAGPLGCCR

For a further data set, the system named is P-gp (MDR1). Briefly: Evaluation of migration of blood-brain barrier (BBB migration evaluation system). Type of data set: in vitro ADME. As to conditions: human, Caco-2-MDR1 cells. An excerpt:
(§1) The blood-brain barrier (BBB) functions as a primary barrier to prevent the invasion of foreign substances, but acts as an obstacle to treatment in pathological circumstances. That is, therapeutics for the treatment of brain diseases or maintaining the condition thereof are very unlikely to permeate the blood-brain barrier, and thus are unable to be effectively used, and accordingly, the selection of drugs for the treatment of brain diseases is limited. […] […] amount of material permeating into mebrain, A: area, and C0: initial concentration of material)

The test system of data set [1] is P-gp(MDR1)-overexpressing Caco-2-MDR1 cells. The description is as above. Type of data set: in vitro ADME. The following applies: class in words.
Text: as §1

SMILES strings stand for the structures.

As usually defined, the IC50 is the midpoint of a concentration-inhibition curve. Consider `O=C(C1CC1)N1CCC[C@H](Nc2nccc(-n3c(-c4ccc5ccccc5n4)nc4ccc(O)cc43)n2)C1` [Compound 26b, (S)-cyclopropyl(3-(4-(6-hydroxy-2-(Quinoline-2-yl)-1H-benzo[d]imidazole-1-yl)pyrimidin-2-ylamino)piperidine-1-yl)methanone], for which the IC50 at human JNK3 enzyme (Table 2) lay within 30 to 100 nM.

In the case of `Oc1ccc2c(c1)nc(-c1ccc3ccccc3c1)n2-c1ccnc(NC2CCOCC2)n1` [Compound 9a, 2-(naphthalene-2-yl)-1-(2-((tetrahydro-2H-pyran-4-yl)amino)pyrimidin-4-yl)-1H-benzo[d]imidazole-5-ol], the half-maximal inhibitory concentration (IC50) at human JNK3 enzyme (Table 1) was > 100 nM.

In the case of `Oc1ccc2c(c1)nc(-c1ccc3occc3c1)n2-c1ccnc(NC2CCCCC2)n1` [Compound 10d, 2-(benzofuran-5-yl)-1-(2-(cyclohexylamine)pyrimidin-4-yl)-1H-benzo[d]imidazole-5-ol], on human JNK3 enzyme (Table 1), the IC50 was > 100 nM.

Turning to `O=C(C1CC1)N1CCC[C@H](Nc2nccc(-n3c(-c4ccc(Cl)c(Cl)c4)nc4cc(O)ccc43)n2)C1` [Compound 13e, (S)-cyclopropyl(3-((4-(2-(3,4-dichlorophenyl)-5-hydroxy-1H-benzo[d]imidazole-1-yl)pyrimidin-2-yl)amino)piperidine-1-yl)methanone], the IC50 on human JNK3 enzyme (Table 1) was < 30 nM.

For `Oc1ccc2c(c1)nc(-c1ccc(F)c(C(F)(F)F)c1)n2-c1ccnc(NC2CCOCC2)n1` [Compound 9f, 2-(4-fluoro-3-(trifluoromethyl)phenyl)-1-(2-((tetrahydro-2H-pyran-4-yl)amino)pyrimidin-4-yl)-1H-benzo[d]imidazole-5-ol], at human JNK3 enzyme (Table 1), the IC50 was 30 to 100 nM.

Regarding `O=C(C1CC1)N1CCC[C@H](Nc2nccc(-n3c(-c4ccc5occc5c4)nc4ccc(O)cc43)n2)C1` [Compound 26d, (S)-(3-((4-(2-(benzofuran-5-yl)-6-hydroxy-1H-benzo[d]imidazole-1-yl)pyrimidin-2-yl)amino)piperidine-1-yl)(cyclopropyl)methanone], on human JNK3 enzyme (Table 2), the 50% inhibitory concentration (IC50) was < 30 nM.

`Oc1ccc2nc(-c3ccc4c(c3)OCCO4)n(-c3ccnc(NC4CCCCC4)n3)c2c1` [Compound 23c, 1-(2-(cyclohexylamino)pyrimidin-4-yl)-2-(2,3-dihydrobenzo[b][1,4]dioxin-6-yl)-1H-benzo[d]imidazole-6-ol]: the half-inhibitory concentration (IC50) at human JNK3 enzyme (Table 2) is > 100 nM.

For `Oc1ccc2c(c1)nc(-c1ccc3occc3c1)n2-c1ccnc(NC2CCOCC2)n1` [Compound 9d, 2-(benzofuran-5-yl)-1-(2-((tetrahydro-2H-pyran-4-yl)amino)pyrimidin-4-yl)-1H-benzo[d]imidazole-5-ol], the 50% inhibitory concentration (IC50) on human JNK3 enzyme (Table 1) was > 100 nM.

With `Oc1ccc2nc(-c3ccc(F)c(C(F)(F)F)c3)n(-c3ccnc(NC4CCCCC4)n3)c2c1` [Compound 23f, 1-(2-(cyclohexylamino)pyrimidin-4-yl)-2-(4-fluoro-3-(trifluoromethyl)phenyl)-1H-benzo[d]imidazole-6-ol], on human JNK3 enzyme (Table 2), the IC50 was > 100 nM.

For `O=C(C1CC1)N1CCC[C@@H](Nc2nccc(-n3c(-c4ccc5occc5c4)nc4cc(O)c(O)cc43)n2)C1` [Compound 35e, (R)-(3-(4-(2-(benzofuran-5-yl)-5,6-dihydroxy-1H-benzo[d]imidazole-1-yl)pyrimidin-2-ylamino)piperidine-1-yl)(cyclopropyl)methanone], on human JNK3 enzyme (Table 3), the concentration for half-maximal inhibition (IC50) is < 30 nM.

For `Oc1ccc2c(c1)nc(-c1ccc(Cl)c(Cl)c1)n2-c1ccnc(NC2CCCCC2)n1` [Compound 10e, 1-(2-(cyclohexylamino)pyrimidin-4-yl)-2-(3,4-dichlorophenyl)-1H-benzo[d]imidazole-5-ol], the IC50 at human JNK3 enzyme (Table 1) is > 100 nM.

On to `Oc1ccc2nc(-c3ccc4ccccc4c3)n(-c3ccnc(NC4CCCCC4)n3)c2c1` [Compound 23a, 1-(2-(cyclohexylamino)pyrimidin-4-yl)-2-(naphthalene-2-yl)-1H-benzo[d]imidazole-6-ol], for which the half-inhibitory concentration (IC50) on human JNK3 enzyme (Table 2) was > 100 nM.

For the compound `Oc1ccc2c(c1)nc(-c1ccc3c(c1)OCCO3)n2-c1ccnc(NC2CCOCC2)n1` [Compound 9c, 2-(2,3-dihydrobenzo[b][1,4]dioxin-6-yl)-1-(2-((tetrahydro-2H-pyran-4-yl)amino)pyrimidin-4-yl)-1H-benzo[d]imidazole-5-ol], the IC50 on human JNK3 enzyme (Table 1) was > 100 nM.

Take `Oc1ccc2nc(-c3ccc4occc4c3)n(-c3ccnc(NC4CCCCC4)n3)c2c1` [Compound 23d, 2-(benzofuran-5-yl)-1-(2-(cyclohexylamino)pyrimidin-4-yl)-1H-benzo[d]imidazole-6-ol]: the IC50 at human JNK3 enzyme (Table 2) is > 100 nM.

Usually efflux ratio stands for a quotient of directional permeabilities that is used to spot active efflux. In general, Papp A→B refers to how fast a substance crosses the layer from the apical side. As a reminder, the Papp B→A is the apparent permeability from the basolateral to the apical side of a cell layer. `O=C(C1CC1)N1CCC[C@H](Nc2nccc(-n3c(-c4ccc5c(c4)OCCO5)nc4ccc(O)cc43)n2)C1` [Compound 26c, (S)-cyclopropyl(3-((4-(2-(2,3-dihydrobenzo[b][1,4]dioxin-6-yl)-6-hydroxy-1H-benzo[d]imidazole-1-yl)pyrimidin-2-yl)amino)piperidine-1-yl)methanone] showed an IC50 on human JNK3 enzyme (Table 2) of 30 to 100 nM. For the same compound, in the data set on P-gp (MDR1), the efflux ratio was 1.03. The apparent permeability from apical to basolateral (Papp A→B) with P-gp (MDR1) (apical to basolateral, read-out: A to B (permeability coefficient Papp)) was 19.2 ×10⁻⁶ cm/s. Also, in the data set with P-gp (MDR1) (basolateral to apical, read-out: B to A (permeability coefficient Papp)), the Papp B→A stood at 19.9 ×10⁻⁶ cm/s. For the same compound, in data set [1], the Permeability entry is on record as “High”.

In the case of `O=C(C1CC1)N1CCC[C@H](Nc2nccc(-n3c(-c4ccc5occc5c4)nc4cc(O)ccc43)n2)C1` [Compound 13d, (S)-(3-(4-(2-(benzofuran-5-yl)-5-hydroxy-1H-benz[d]imidazole-1-yl)pyrimidin-2-ylamino)piperidine-1-yl)(cyclopropyl)methanone], the half-maximal inhibitory concentration (IC50) at human JNK3 enzyme (Table 1) is < 30 nM.

`Oc1c2ccccc2c2c3c(cccc13)N=N2` [SP600125, reference compound]: the concentration for half-maximal inhibition (IC50) on human JNK3 enzyme (Table 1), at human JNK3 enzyme (Table 2) and on human JNK3 enzyme (Table 3) was 30 to 100 nM throughout.

`O=C(C1CC1)N1CCC[C@H](Nc2nccc(-n3c(-c4ccc5ccccc5n4)nc4cc(O)ccc43)n2)C1` [Compound 13b, (S)-cyclopropyl(3-((4-(5-hydroxy-2-(Quinoline-2-yl)-1H-benzo[d]imidazole-1-yl)pyrimidin-2-yl)amino)piperidine-1-yl)methanone]: on human JNK3 enzyme (Table 1), the IC50 fell in the range of 30 to 100 nM.

In the case of `Oc1ccc2c(c1)nc(-c1ccc(F)c(C(F)(F)F)c1)n2-c1ccnc(NC2CCCCC2)n1` [Compound 10f, 1-(2-(cyclohexylamino)pyrimidin-4-yl)-2-(4-fluoro-3-(trifluoromethyl)phenyl)-1H-benzo[d]imidazole-5-ol], the concentration for half-maximal inhibition (IC50) at human JNK3 enzyme (Table 1) was > 100 nM.

Turning to `O=C(C1CC1)N1CCC[C@H](Nc2nccc(-n3c(-c4ccc(F)c(C(F)(F)F)c4)nc4cc(O)ccc43)n2)C1` [Compound 13f, (S)-cyclopropyl(3-((4-(2-(4-fluoro-3-(trifluoromethyl)phenyl)-5-hydroxy-1H-benzo[d]imidazole-1-yl)pyrimidin-2-yl)amino)piperidine-1-yl)methanone], on human JNK3 enzyme (Table 1), the half-inhibitory concentration (IC50) was 30 to 100 nM.

In the case of `O=C(C1CC1)N1CCC[C@@H](Nc2nccc(-n3c(-c4ccc5ccccc5c4)nc4cc(O)c(O)cc43)n2)C1` [Compound 35a, (R)-cyclopropyl(3-(4-(5,6-dihydroxy-2-(naphthalene-2-yl)-1H-benzo[d]imidazole-1-yl)pyrimidin-2-ylamino)piperidine-1-yl)methanone], the IC50 on human JNK3 enzyme (Table 3) is < 30 nM.

With `Oc1ccc2c(c1)nc(-c1ccc3c(c1)OCCO3)n2-c1ccnc(NC2CCCCC2)n1` [Compound 10c, 1-(2-(cyclohexylamino)pyrimidin-4-yl)-2-(2,3-dihydrobenzo[b][1,4]dioxin-6-yl)-1H-benzo[d]imidazole-5-ol], the IC50 at human JNK3 enzyme (Table 1) was > 100 nM.

As for `Oc1ccc2nc(-c3ccc4ccccc4n3)n(-c3ccnc(NC4CCCCC4)n3)c2c1` [Compound 23b, 3-(2-(cyclohexylamino)pyrimidin-4-yl)-2-(Quinoline-2-yl)-3H-benz[d]imidazole-5-ol], on human JNK3 enzyme (Table 2), the IC50 was > 100 nM.

`O=C(C1CC1)N1CCC[C@H](Nc2nccc(-n3c(-c4ccc5ccccc5c4)nc4cc(O)ccc43)n2)C1` [Compound 13a, (S)-cyclopropyl(3-((4-(5-hydroxy-2-(naphthalene-2-yl)-1H-benzo[d]imidazole-1-yl)pyrimidin-2-yl)amino)piperidine-1-yl)methanone] yielded an IC50 on human JNK3 enzyme (Table 1) of 30 to 100 nM.

`Oc1ccc2nc(-c3ccc4ccccc4n3)n(-c3ccnc(NC4CCOCC4)n3)c2c1` [Compound 22b, 2-(Quinoline-2-yl)-1-(2-((tetrahydro-2H-pyran-4-yl)amino)pyrimidin-4-yl)-1H-benzo[d]imidazole-6-ol] registered a 50% inhibitory concentration (IC50) on human JNK3 enzyme (Table 2) of 30 to 100 nM.

(Values after patent publication US10781201B2, “Benzimidazole derivative having JNK inhibitory activity and use thereof” (INDUSTRY-UNIVERSITY COOPERATION FOUNDATION HANYANG …, priority 2017, dated 2020).)
